Measurements published in patent US4996204A, “Pyrido[2,3-d]pyridazinones as aldose reductase inhibitors” (Pfizer Inc., priority 1989, dated 1991).

Biological target: T1, partially purified aldose reductase enzyme obtained from human placenta (Homo sapiens, UniProt P15121)
T1 construct: partially purified aldose reductase enzyme obtained from human placenta; from tissue; host or cells: human placenta
Test: inhibition of aldose reductase enzyme activity (procedure of S. Hayman et al. as modified by K. Sestanj et al.)
Format: biochemical
Conditions: read-out: Percent Inhibition (%) of aldose reductase enzyme activity; for inhibition at 10 µM: 10^-5 M; for inhibition at 1 µM: 10^-6 M; for inhibition at 0.1 µM: 10^-7 M
Excerpt: Hayman et al., as described in the Journal of Biological Chemistry, Vol. 240, p. 877 (1965) and as modified by K. Sestanj et al. in U.S. Pat. […] In every case, the substrate employed was partially purified aldose reductase enzyme obtained from human placenta.

| inhibition at 10 µM [%] | inhibition at 1 µM [%] | inhibition at 0.1 µM [%] | Structure (SMILES) |
| --- | --- | --- | --- |
| 93 | 87 | 31 | O=C(O)Cc1nn(Cc2nc3cc(Br)ccc3o2)c(=O)c2cccnc12 [Example 18, 6-(5-bromobenzoxazole-2-ylmethyl)-5-oxo-6H-pyrido[2,3-d]pyridazine-8-ylacetic acid] |
| 88 | 81 | 74 | O=C(O)Cc1nn(Cc2nc3cc(C(F)(F)F)ccc3s2)c(=O)c2cccnc12 [Example 15, 6-(5-trifluoromethylbenzothiazole-2-ylmethyl) -5-oxo-6H-pyrido[2,3-d]pyridazine-8-ylacetic acid] |
| 86 | 76 | 30 | O=C(O)Cc1nn(Cc2ccc(Br)cc2F)c(=O)c2cccnc12 [Example 21, 6-(4-bromo-2-fluorobenzyl)-5-oxo-6H-pyrido[2,3-d]pyridazine-8-ylacetic acid] |
| 77 | 72 | 43 | O=C(O)Cc1nn(Cc2noc(-c3ccccc3C(F)(F)F)n2)c(=O)c2cccnc12 [Example 20, 6-[5-(2-trifluoromethylphenyl)-1,2,4-oxadiazole-3-ylmethyl]-5-oxo-6H-pyrido[2,3-d]pyridazine-8-ylacetic acid] |
| 94 | 91 | 90 | O=C(O)Cc1nn(Cc2nc3cc(F)ccc3s2)c(=O)c2cccnc12 [Example 16, 6-(5-fluorobenzothiazole-2-ylmethyl)-5-oxo-6H-pyrido[2,3-d]pyridazine-8-ylacetic acid] |
| 75 | 65 | 39 | O=C(O)Cc1nn(Cc2nc3cc(F)cc(F)c3s2)c(=O)c2cccnc12 [Example 17] |
| 80 | 60 | 8 | O=C(O)Cc1nn(Cc2cc3c(Cl)cccc3s2)c(=O)c2cccnc12 [Example 19, 6-(4-chlorobenzothiophene-2-ylmethyl)-5-oxo-6H-pyrido[2,3-d]pyridazine-8-ylacetic acid] |
